These results are taken from patent US20080255121A1, “Combination Drug for Treating Autoimmune Disease” (DAINIPPON SUMITOMO PHARMA CO., LTD., priority 2004, published 2008).

Molecules are shown by their SMILES. “Also recorded” adds a separate entry of the source.

Test [1] relates to IκBα. Put plainly: Degradation of IκBα in stimulated T-lymphocytes (Western blotting). It is filed as cell-based, mouse. The note with it: Compound (I) 30 μM, KN-93 10 μM; EL-4 cells; FIG. 17. How it is done: Effects of Compound (I) and KN-93 on the degradation of IκBα when T-lymphocytes were stimulated with Phorbol 12-myristate 13-acetate (PMA) and Calcium Ionophore A23187 were evaluated.
EL-4 cells (mouse T-lymphocyte cell line) were cultured in Dulbecco's Modified Eagle Medium (DMEM: GIBCO, Inc.) containing 10% fetal bovine serum and subjected to the experiments. Cells subconfluently multiplied were collected by centrifugation and dispensed into Eppendorf tubes to be contained at 5×10^6 cells/tube. After Compound (I) (final 30 μM) or KN-93 (final 10 μM) was added and preincubated at 37° C. in a water bath, stimulation by PMA (final 125 ng/ml) and A23187 (final 1 μg/ml) was performed (total volume 500 μl). After incubated for 15 minutes or 30 minutes after the stimulation, 1 ml of an ice cold stop solution (1×PBS, 1 mM Na3VO4, 5 mM EDTA) was added to terminate the reaction. After centrifugation and rinsing, it was dissolved in TNE buffer (50 mMTris-HCl, 1% NP-40, 20 mM EDTA, 100 μg/ml PMSF, 30 μl/ml Aprotinin, 1 mM Na3VO4, 5 mM NaF, 12 mM β-glycerophosphate). After performing 12% SDS-PAGE, proteins were transferred onto a PVDF membrane and western blotting was performed with anti-IκBα antibody (C-21, Santa Cruz, Inc.).
In general terms: A western blot detects proteins with antibodies after separation by electrophoresis.

Test [2] concerns Akt. Put plainly: Phosphorylation of Akt in bFGF stimulated fibroblasts (Western blotting). The format is cell-based, mouse. The following applies: Compound (I) 20 μM, KN-93 20 μM; L929 cells; FIG. 19. How it is done: Effects of Compound (I) and KN-93 on effect on the expression of cyclin D1 and the phosphorylation of Akt when fibroblasts were stimulated with basic fibroblast growth factor (bFGF) were evaluated.
L929 cells (mouse fibroblast cell line) were cultured in MEM-Earl medium (E-MEM: GIBCO, Inc.) containing 10% fetal bovine serum and subjected to the experiment. The cells were suspended in a serum-free E-MEM and cultured for 72 hours. An E-MEM medium containing the test substance was added and incubated for 1 hour, and an E-MEM medium containing recombinant human FGF basic (bFGF) as a stimulant was added and further incubated. The cells were lysed in a RIPA buffer and a total cell lysate was obtained. After performing SDS-PAGE, proteins were transferred onto a PVDF membrane and western blotting was performed with anti-cyclin antibody or anti-Akt antibody (both available from Santa Cruz, Inc.).

Test [3] deals with osteoclasts. Put plainly: Formation of osteoclasts from cells of collagen arthritis mouse leg (TRAP staining). It is filed as cell-based. The note with it: Compound (I) 0.5 to 20 μM, KN-93 0.3 to 5 μM; nine days; FIG. 5. As to the method: Effects of Compound (I) and KN-93 on the formation of osteoclasts were evaluated.
A mouse leg affected with developed collagen arthritis was removed and treated in an α-MEM culture medium (GIBCO, Inc.) containing 10% fetal bovine serum in the presence of dispase (Godo Shuzo) and collagenase S1 (Nitta Gelatin Inc.) at 37° C. for five to six hours and monodisperse cell suspended liquid was collected. This sample was centrifuged, rinsed by resuspension and subjected to the experiment. The cells were disseminated in 96-well plate in a ratio of 2×10^4 cells/well, an α-MEM medium containing the test compound was added thereto and incubated for nine days. After the incubation, osteoclasts were stained with a kit (Sigma, Inc.) for TRAP staining and the number of the osteoclasts per well was measured by microscopic observation. The TRAP staining was carried out in accordance with instructions attached to the kit.

Test [4] relates to J774A.1 cells. Put plainly: IL-6 production when macrophages were stimulated with LPS. The following applies: Compound (I) 1 to 30 μM, KN-93 1 to 3 μM; 24 hours; FIG. 2. It is filed as cell-based, mouse. As to the method:
Effects of Compound (I) and KN-93 on IL-6 production when macrophages were stimulated with lipopolysaccharide (LPS) were evaluated.
J774A.1 cells (mouse macrophage cell line) were cultured in Dulbecco's Modified Eagle Medium (DMEM: GIBCO, Inc.) containing 10% fetal bovine serum and subjected to the experiment. The cells were disseminated in 96-well plate in a ratio of 5×10^4 cells/well and a DMEM medium containing the test substance and a DMEM medium containing LPS as a stimulant were added and incubated for 24 hours. The concentration was adjusted so that the final concentrations of the test substances and stimulants were 1 to 30 μM for Compound (I), 1 to 3 μM for KN-93 and 1 μg/ml for LPS. The plate was centrifuged after incubation and the supernatant was collected with micropipette. The concentration of IL-6 in the supernatant was quantified by Enzyme-linked Immunosorbent Assay (ELISA) method. The quantitative method was carried out in accordance with the instructions attached to the kit (MOUSE IL-6 Immunoassay, R & D Systems).

The test system of test [5] is SW982 cells. Put plainly: Proliferation of human synovial cells (Alamar Blue). The note with it: Compound (I) 1 to 30 μM, KN-93 1 to 30 μM; FIG. 4. It is filed as cell-based. As to the method:
Effects of Compound (I) and KN-93 on the proliferation of SW982 cells (human synovial cell line) were evaluated.
SW982 cells (human synovial cell line; obtained from ATCC) was cultured in a FCS (product of SIGMA, Inc.) containing DMEM medium (product of GIBCO, Inc.) and subjected to the experiment. SW982 was disseminated in 96-well flat bottom plate in the absence of serum in a ratio of 4×10^4 cells/well. Compounds were added at the same time of the dissemination of the cells and incubated at 200 μl cells/well. 20 μl of Alamar Blue® was added to each well (BIOSOURCE, Inc.) after 18 hours and incubated for further six hours and the absorbance of each well was measured with a microplate reader. The absorbance was measured at two wavelengths of 570 nm and 600 nm.
For orientation: Alamar Blue is a resazurin reagent that responds to reducing activity.

`C[C@@H](c1ccc(-c2ccccc2)c(F)c1)c1cc(/N=C(/N)N2CCOCC2)on1` [Compound (I), 3-[(1S)-1-(2-fluorobiphenyl-4-yl)ethyl]-5-{[amino(morpholin-4-yl)methylene]amino}isoxazole]: the “degradation of IκBα” value in test [1] is reported as “suppressed the degradation of IκBα”. Further, the “phosphorylation of Akt” value in test [2] was “suppressed the phosphorylation of Akt”. The formation of osteoclasts entry in test [3] is on record as “dose-dependently suppressed the formation of osteoclasts”. In addition, the “production of IL-6” value in test [4] was “suppressed production of IL-6 dose-dependently”. Also, the “proliferation of SW982 cells” value in test [5] is “dose-dependently suppressed the proliferation of human synovial cells; also recorded: almost completely suppressed”.
Regarding `COc1ccc(S(=O)(=O)N(CCO)c2ccccc2CN(C)C/C=C/c2ccc(Cl)cc2)cc1` [KN-93, N-(2-[N-[4-chlorocinnamyl]-N-methylaminomethyl]phenyl)-N-(2-hydroxyethyl)-4-methoxybenzenesulfonamide, reference compound], the “degradation of IκBα” value in test [1] is “suppressed the degradation of IκBα”. Further, the “phosphorylation of Akt” value in test [2] is “suppressed the phosphorylation of Akt”. For the same compound, the formation of osteoclasts result in test [3] was “dose-dependently suppressed the formation of osteoclasts”. In test [4], the “production of IL-6” value was “suppressed production of IL-6 dose-dependently”. In test [5], the “proliferation of SW982 cells” value is given as “dose-dependently suppressed the proliferation of human synovial cells; also recorded: almost completely suppressed”.
